Experimental data from PubChem BioAssay (NCI).
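How tested: cells in 96-well plates exposed to compound for 48 hours at five concentrations. Abbreviation: GI50, concentration required for 50% inhibition of growth. TGI marks complete inhibition of growth.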

What was measured:
Test in all cases: inhibition of tumour cell growth, NCI panel, 48 h
TK-10 renal = system: TK-10 renal
MDA-MB-231 breast = system: MDA-MB-231 breast
HCT-15 colon = system: HCT-15 colon
CCRF-CEM leukemia = system: CCRF-CEM leukemia
HL-60(TB) leukemia = system: HL-60(TB) leukemia
HCC-2998 colon = system: HCC-2998 colon
U251 CNS = system: U251 CNS
T-47D breast = system: T-47D breast
786-0 renal = system: 786-0 renal
OVCAR-4 ovarian = system: OVCAR-4 ovarian
SNB-19 CNS = system: SNB-19 CNS
HOP-62 NSCLC = system: HOP-62 NSCLC
RXF 393 renal = system: RXF 393 renal
OVCAR-5 ovarian = system: OVCAR-5 ovarian
KM12 colon = system: KM12 colon
RPMI-8226 leukemia = system: RPMI-8226 leukemia
A498 renal = system: A498 renal
NCI-H460 lung = system: NCI-H460 lung
DU-145 prostate = system: DU-145 prostate
NCI-H522 lung = system: NCI-H522 lung
M14 melanoma = system: M14 melanoma
LOX IMVI melanoma = system: LOX IMVI melanoma
BT-549 breast = system: BT-549 breast
K-562 leukemia = system: K-562 leukemia
MCF7 breast = system: MCF7 breast
SF-295 CNS = system: SF-295 CNS
SN12C renal = system: SN12C renal
SR leukemia = system: SR leukemia
MDA-MB-435 = system: MDA-MB-435
MALME-3M melanoma = system: MALME-3M melanoma
SK-OV-3 ovarian = system: SK-OV-3 ovarian
SK-MEL-5 melanoma = system: SK-MEL-5 melanoma
MOLT-4 leukemia = system: MOLT-4 leukemia
UACC-257 melanoma = system: UACC-257 melanoma
SF-539 CNS = system: SF-539 CNS
OVCAR-3 ovarian = system: OVCAR-3 ovarian
UO-31 renal = system: UO-31 renal
HS 578T breast = system: HS 578T breast
A549 NSCLC = system: A549 NSCLC
SNB-75 CNS = system: SNB-75 CNS
SK-MEL-28 melanoma = system: SK-MEL-28 melanoma
CAKI-1 renal = system: CAKI-1 renal
HT29 colon = system: HT29 colon
SF-268 CNS = system: SF-268 CNS
SK-MEL-2 melanoma = system: SK-MEL-2 melanoma
COLO 205 colon = system: COLO 205 colon
SW-620 colon = system: SW-620 colon
NCI/ADR-RES ovarian = system: NCI/ADR-RES ovarian
HCT-116 colon = system: HCT-116 colon
ACHN renal = system: ACHN renal
OVCAR-8 ovarian = system: OVCAR-8 ovarian
NCI-H226 lung = system: NCI-H226 lung
IGROV1 ovarian = system: IGROV1 ovarian
HOP-92 NSCLC = system: HOP-92 NSCLC

`CC#Cc1nc2ccccc2c(=O)[nH]1` was tested, and the GI50 (TK-10 renal) was 5.06 µM, the TGI (TK-10 renal) was 26.3 µM and the GI50 (MDA-MB-231 breast) was 2.1 µM. It also gave a TGI (MDA-MB-231 breast) of 4.71 µM, a GI50 (HCT-15 colon) of 2.73 µM and a TGI (HCT-15 colon) of 8.91 µM. It also gave a GI50 (CCRF-CEM leukemia) of 2.62 µM, a TGI (CCRF-CEM leukemia) of 25.4 µM and a GI50 (HL-60(TB) leukemia) of 3.11 µM. For the same compound, the TGI (HL-60(TB) leukemia) was 9.62 µM, the GI50 (HCC-2998 colon) was 1.99 µM and the TGI (HCC-2998 colon) was 4.17 µM. It also gave a GI50 (U251 CNS) of 3.42 µM, a TGI (U251 CNS) of 12.8 µM and a GI50 (T-47D breast) of 5.71 µM. The TGI (T-47D breast) was 23 µM, the GI50 (786-0 renal) was 4.23 µM and the TGI (786-0 renal) was 14.7 µM. For the same compound, the GI50 (OVCAR-4 ovarian) was 4.15 µM, the TGI (OVCAR-4 ovarian) was 27.5 µM and the GI50 (SNB-19 CNS) was 13.3 µM. For the same compound, the TGI (SNB-19 CNS) was 52.3 µM, the GI50 (HOP-62 NSCLC) was 3.18 µM and the TGI (HOP-62 NSCLC) was 9.43 µM. The GI50 (RXF 393 renal) was 1.57 µM, the TGI (RXF 393 renal) was 3.27 µM and the GI50 (OVCAR-5 ovarian) was 6.1 µM. For the same compound, the TGI (OVCAR-5 ovarian) was 27.1 µM, the GI50 (KM12 colon) was 2.68 µM and the TGI (KM12 colon) was 6.58 µM. For the same compound, the GI50 (RPMI-8226 leukemia) was 1.52 µM, the TGI (RPMI-8226 leukemia) was 5.73 µM and the GI50 (A498 renal) was 1.38 µM. The TGI (A498 renal) was 2.74 µM, the GI50 (NCI-H460 lung) was 3.89 µM and the TGI (NCI-H460 lung) was 20.2 µM. The GI50 (DU-145 prostate) was 4.88 µM, the TGI (DU-145 prostate) was greater than 100 µM and the GI50 (NCI-H522 lung) was 5.27 µM. It also gave a TGI (NCI-H522 lung) of 16.7 µM, a GI50 (M14 melanoma) of 3.28 µM and a TGI (M14 melanoma) of 9.71 µM. The GI50 (LOX IMVI melanoma) was 1.82 µM, the TGI (LOX IMVI melanoma) was 3.43 µM and the GI50 (BT-549 breast) was 2.34 µM. For the same compound, the TGI (BT-549 breast) was 5.18 µM, the GI50 (K-562 leukemia) was 3.93 µM and the TGI (K-562 leukemia) was greater than 100 µM. The GI50 (MCF7 breast) was 3.07 µM, the TGI (MCF7 breast) was greater than 100 µM and the GI50 (SF-295 CNS) was 4.1 µM. It also gave a TGI (SF-295 CNS) of 20.6 µM, a GI50 (SN12C renal) of 3.02 µM and a TGI (SN12C renal) of 9.8 µM. For the same compound, the GI50 (SR leukemia) was 2.38 µM, the TGI (SR leukemia) was 19 µM and the GI50 (MDA-MB-435) was 2.04 µM. For the same compound, the TGI (MDA-MB-435) was 5.35 µM, the GI50 (MALME-3M melanoma) was 4.21 µM and the TGI (MALME-3M melanoma) was 15 µM. The GI50 (SK-OV-3 ovarian) was 41.7 µM, the TGI (SK-OV-3 ovarian) was greater than 100 µM and the GI50 (SK-MEL-5 melanoma) was 1.65 µM. The TGI (SK-MEL-5 melanoma) was 3.32 µM, the GI50 (MOLT-4 leukemia) was 2.9 µM and the TGI (MOLT-4 leukemia) was 8.51 µM. For the same compound, the GI50 (UACC-257 melanoma) was 3.4 µM, the TGI (UACC-257 melanoma) was 15.4 µM and the GI50 (SF-539 CNS) was 2.76 µM. The TGI (SF-539 CNS) was 9.14 µM, the GI50 (OVCAR-3 ovarian) was 2.11 µM and the TGI (OVCAR-3 ovarian) was 4.16 µM. For the same compound, the GI50 (UO-31 renal) was 3.18 µM, the TGI (UO-31 renal) was 8.87 µM and the GI50 (HS 578T breast) was 4.92 µM. For the same compound, the TGI (HS 578T breast) was greater than 100 µM, the GI50 (A549 NSCLC) was 4.9 µM and the TGI (A549 NSCLC) was 34.2 µM. The GI50 (SNB-75 CNS) was 2.09 µM, the TGI (SNB-75 CNS) was 6.43 µM and the GI50 (SK-MEL-28 melanoma) was 4.55 µM. It also gave a TGI (SK-MEL-28 melanoma) of 33.9 µM, a GI50 (CAKI-1 renal) of 6.15 µM and a TGI (CAKI-1 renal) of 28.3 µM. The GI50 (HT29 colon) was 3.79 µM, the TGI (HT29 colon) was 13.9 µM and the GI50 (SF-268 CNS) was 3.17 µM. It also gave a TGI (SF-268 CNS) of 11.1 µM, a GI50 (SK-MEL-2 melanoma) of 3.2 µM and a TGI (SK-MEL-2 melanoma) of 7.21 µM. It also gave a GI50 (COLO 205 colon) of 2.03 µM, a TGI (COLO 205 colon) of 3.7 µM and a GI50 (SW-620 colon) of 3.7 µM. For the same compound, the TGI (SW-620 colon) was 23 µM, the GI50 (NCI/ADR-RES ovarian) was 3.89 µM and the TGI (NCI/ADR-RES ovarian) was 63.9 µM. For the same compound, the GI50 (HCT-116 colon) was 3.24 µM, the TGI (HCT-116 colon) was 13 µM and the GI50 (ACHN renal) was 3.65 µM. The TGI (ACHN renal) was 23.3 µM, the GI50 (OVCAR-8 ovarian) was 4.89 µM and the TGI (OVCAR-8 ovarian) was 64.9 µM. For the same compound, the GI50 (NCI-H226 lung) was 2.3 µM, the TGI (NCI-H226 lung) was 5.84 µM and the GI50 (IGROV1 ovarian) was 2.51 µM. It also gave a TGI (IGROV1 ovarian) of 6.97 µM, a GI50 (HOP-92 NSCLC) of 2.3 µM and a TGI (HOP-92 NSCLC) of 7.74 µM.
